According to patent publication US7282608B2, “Inhibitors of histone deacetylase” (Methylgene, Inc., priority 2002, dated 2007):

Experiments:
[1] = system: HCT116 cells; assay: MTT assay; format: cell-based; settings: Homo sapiens, HCT-116, 72 hours
Protocol: HCT116 cells (2000/well) were plated into 96-well tissue culture plates one day before compound treatment. Compounds at various concentrations were added to the cells. The cells were incubated for 72 hours at 37° C. in 5% CO2 incubator. MTT (3-[4,5-dimethylthiazol-2-yl]-2,5 diphenyl tetrazolium bromide, Sigma) was added at a final concentration of 0.5 mg/ml and incubated with the cells for 4 hours before one volume of solubilization buffer (50% N,N-dimethylformamide, 20% SDS, pH 4.7) was added onto the cultured cells. After overnight incubation, solubilized dye was quantified by colorimetric reading at […] using a reference at […] using an MR700 plate reader (Dynatech Laboratories Inc.). OD values were converted to cell numbers according to a standard growth curve of the relevant cell line. The concentration which reduces cell numbers to 50% of that of solvent treated cells is determined as MTT IC50. IC50 values for representative compounds are presented in the fourth column of Tables 7–10.

[2] = biological target: T1, cloned recombinant human HDAC-1 (Homo sapiens, UniProt Q13547); assay: Human HDAC-1 Assay 1: [3H]-acetylated histone deacetylase assay; format: biochemical; settings: Assay 1, unbracketed data; [3H]-acetylated histone substrate, 10 min at 37° C.
T1 construct: made in house; host or cells: Baculovirus insect cell expression system
T1 sequence (Q13547 whole entry): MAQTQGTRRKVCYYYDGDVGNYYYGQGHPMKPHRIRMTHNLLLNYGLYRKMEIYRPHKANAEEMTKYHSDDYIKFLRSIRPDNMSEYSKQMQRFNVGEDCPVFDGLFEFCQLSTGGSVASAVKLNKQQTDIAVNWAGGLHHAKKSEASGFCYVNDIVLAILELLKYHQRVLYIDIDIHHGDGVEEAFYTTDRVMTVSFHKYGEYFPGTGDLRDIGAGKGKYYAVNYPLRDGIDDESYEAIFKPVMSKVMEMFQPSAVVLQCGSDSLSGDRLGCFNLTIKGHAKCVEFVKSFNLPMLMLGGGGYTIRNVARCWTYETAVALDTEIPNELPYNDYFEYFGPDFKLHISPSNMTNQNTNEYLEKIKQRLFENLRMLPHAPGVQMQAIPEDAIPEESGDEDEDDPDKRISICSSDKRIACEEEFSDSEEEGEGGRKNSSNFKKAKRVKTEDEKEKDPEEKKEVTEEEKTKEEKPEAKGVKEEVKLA
Protocol: HDAC inhibitors were screened against a cloned recombinant human HDAC-1 enzyme expressed and purified from a Baculovirus insect cell expression system. For deacetylase assays, 20,000 cpm of the [^3H]-metabolically labeled acetylated histone substrate (M. Yoshida et al., J. Biol. Chem. 265(28): 17174–17179 (1990)) was incubated with 30 μg of the cloned recombinant hHDAC-1 for 10 minutes at 37° C. The reaction was stopped by adding acetic acid (0.04 M, final concentration) and HCl (250 mM, final concentration). […] For inhibition studies, the enzyme was preincubated with compounds at 4° C. for 30 minutes prior to initiation of the enzymatic assay. IC50 values for HDAC enzyme inhibitors were determined by performing dose response curves with individual compounds and determining the concentration of inhibitor producing fifty percent of the maximal inhibition. IC50 values for representative compounds assayed using this procedure are presented in the third column of Tables 7–10 (excepting bracketed data).

[3] = system: acetylated histone H-4 in T24 human bladder cancer cells; assay: Histone H4 acetylation in whole cells by immunoblots; format: cell-based; settings: 16 h, immunoblot densitometry, read-out: H4 Ac (T24) EC50
Protocol: T24 human bladder cancer cells growing in culture were incubated with HDAC inhibitors for 16 h. Histones were extracted from the cells after the culture period as described by M. Yoshida et al. (J. Biol. Chem. 265(28): 17174–17179 (1990)). […] of total histone protein was loaded onto SDS/PAGE and transferred to nitrocellulose membranes. Membranes were probed with polyclonal antibodies specific for acetylated histone H-4 (Upstate Biotech Inc.), followed by horse radish peroxidase conjugated secondary antibodies (Sigma). Enhanced Chemiluminescence (ECL) (Amersham) detection was performed using Kodak films (Eastman Kodak). Acetylated H-4 signal was quantified by densitometry. Representative data are presented in the fifth column of Table 7–10. Data are presented as the concentration effective for […] the acetylated H-4 signal by 50% (EC50).

Row | SMILES | IC50 [1] | IC50 [2] | EC50 [3]
1 | Nc1ccccc1NC(=O)c1ccc(/C=C/CNc2nc3ccccc3s2)cc1 [XVc, N-(2-Amino-phenyl)-4-[3-(benzothiazol-2-ylamino)-propenyl]-benzamide] | 1 µM | 0.8 µM | < 1 µM
2 | COc1cc(CNC(=O)/C=C/c2ccc(C(=O)Nc3ccccc3N)cc2)cc(OC)c1OC [Vc, N-(2-Amino-phenyl)-4-[2-(3,4,5-trimethoxy-benzylcarbamoyl)-vinyl]-benzamide] | 0.9 µM | 3 µM | 2 µM
3 | COc1ccc(C(=O)/C=C/c2ccc(C(=O)Nc3ccccc3N)cc2)cc1 [XXIVc, N-(2-Amino-phenyl)-4-[3-(4-methoxy-phenyl)-3-oxo-propenyl]-benzamide] | 0.6 µM | 13 µM | 5 µM
4 | COc1cccc(C(=O)/C=C/c2ccc(C(=O)Nc3ccccc3N)cc2)c1 [XXIVd, N-(2-Amino-phenyl)-4-[3-(3-methoxy-phenyl)-3-oxo-propenyl]-benzamide] | 0.3 µM | 4 µM | < 5 µM
5 | Nc1ccccc1NC(=O)c1ccc(C(=O)/C=C/c2cccnc2)cc1 [Ib, N-(2-Amino-phenyl)-4-(3-pyridin-3-yl-acryloyl)-benzamide] | 0.9 µM | 2 µM | 5 µM
6 | Nc1ccccc1NC(=O)c1ccc(/C=C/C(=O)NCc2cccnc2)cc1 [Vb, N-(2-Amino-phenyl)-4-{2-[(pyridin-3-ylmethyl)-carbamoyl]-vinyl}-benzamide] | 0.07 µM | 3 µM | 1 µM
7 | Nc1ccccc1NC(=O)c1ccc(C(=O)/C=C/c2ccc(C(F)(F)F)cc2)cc1 [Ih, N-(2-Amino-phenyl)-4-[3-(4-trifluoromethyl-phenyl)-acryloyl]-benzamide] | 1 µM | 5 µM | 5 µM
8 | Cc1ccc(S(=O)(=O)NC/C=C/c2ccc(C(=O)Nc3ccccc3N)cc2)cc1 [XVg, N-(2-Amino-phenyl)-4-[3-(4-tolyl-sulfonylamino)-propenyl]-benzamide] | 5 µM | 12 µM | –
9 | COc1cc(C)nc(NC/C=C/c2ccc(C(=O)Nc3ccccc3N)cc2)n1 [XVd, N-(2-Amino-phenyl)-4-[3-(4-methoxy-6-methyl-pyrimidin-2-ylamino)-propenyl]-benzamide] | 0.3 µM | 4 µM | 3 µM
10 | Nc1ccccc1NC(=O)c1ccc(/C=C/CN2CCN(Cc3ccccc3)CC2)cc1 [XXXb, N-(2-Amino-phenyl)-4-[3-(4-benzyl-piperazin-1-yl)-propenyl]-benzamide] | 1 µM | 4 µM | 2 µM
11 | COc1ccc(/C=C/C(=O)c2ccc(C(=O)Nc3ccccc3N)cc2)cc1OC1CCCC1 [Ij, N-(2-Amino-phenyl)-4-[3-(3-cyclopentyloxy-4-methoxy-phenyl)-acryloyl]-benzamide] | 0.7 µM | 4 µM | 5 µM
12 | Nc1ccccc1NC(=O)c1ccc(/C=C/C(=O)NCCc2cccnc2)cc1 [Vf, N-(2-Amino-phenyl)-4-[2-(2-pyridin-3-yl-ethylcarbamoyl)-vinyl]-benzamide] | 0.3 µM | 5 µM | 1 µM
13 | Nc1ccccc1NC(=O)c1ccc(/C=C/C(=O)NCCc2c[nH]c3ccccc23)cc1 [Vj, N-(2-Amino-phenyl)-4-{2-[2-(1H-indol-3-yl)-ethylcarbamoyl]-vinyl}-benzamide] | 0.3 µM | 1 µM | 1 µM
14 | Nc1ccccc1NC(=O)c1ccc(/C=C/CNCc2cccnc2)cc1 [XVh, N-(2-Amino-phenyl)-4-{3-[(pyridin-3-ylmethyl)-amino]propenyl}-benzamide] | 0.7 µM | 4 µM | 2 µM
15 | Nc1ccccc1NC(=O)c1ccc(/C=C/C(=O)OCc2cccnc2)cc1 [Vg, Pyridin-3-ylmethyl 3-[4-(2-amino-phenylcarbamoyl)-phenyl]-acrylic ester] | 5 µM | 10 µM | –
16 | Nc1ccccc1NC(=O)c1ccc(CCC(=O)c2ccccc2)cc1 [XXVIIa, N-(2-Amino-phenyl)-4-(3-oxo-3-phenyl-propyl)-benzamide] | 0.6 µM | 2 µM | 2 µM

Row | SMILES | IC50 [1] | IC50 [2] | EC50 [3]
17 | Nc1ccccc1NC(=O)c1ccc(/C=C/C(=O)N(Cc2cccnc2)Cc2cccnc2)cc1 [Vo, N-(2-Amino-phenyl)-4-[2-(bis-pyridin-3-ylmethyl-carbamoyl)-vinyl]-benzamide] | 4 µM | 15 µM | –
18 | COc1cc(NC/C=C/c2ccc(C(=O)Nc3ccccc3N)cc2)cc(OC)c1OC [XVb, N-(2-Amino-phenyl)-4[3-(3,4,5-trimethoxy-phenylamino)-propenyl]-benzamide] | 0.1 µM | 4 µM | 3 µM
19 | Nc1ccccc1NC(=O)c1ccc(/C=C/C(=O)c2ccccc2[N+](=O)[O-])cc1 [XXIVb, N-(2-Amino-phenyl)-4-[3-(2-nitro-phenyl)-3-oxo-propenyl]-benzamide] | 0.1 µM | 8 µM | 3 µM
20 | Nc1ccccc1NC(=O)c1ccc(CCCc2ccccc2)cc1 [XXIXa, N-(2-Amino-phenyl)-4-(3-phenyl-propyl)-benzamide] | 0.6 µM | 2 µM | –
21 | Nc1ccccc1NC(=O)c1ccc(/C=C/C(=O)N[C@H]2c3ccccc3C[C@H]2O)cc1 [Vp, (−)-(1S,2R)-N-(2-Amino-phenyl)-4-[2-(2-hydroxy-indan-1-ylcarbamoyl)-vinyl]-benzamide] | 2 µM | 13 µM | –
22 | Nc1ccccc1NC(=O)c1ccc(/C=C/C(=O)N2CCCC2c2cccnc2)cc1 (racemic) [Vl, (rac)-N-(2-Amino-phenyl)-4-[3-oxo-3-(2-pyridin-3-yl-pyrrolidin-1-yl)-propenyl]-benzamide] | 4 µM | 12 µM | –
23 | Nc1ccccc1NC(=O)c1ccc(C(=O)/C=C/c2ccc(Cl)cc2)cc1 [Ie, N-(2-Amino-phenyl)-4-[3-(4-chloro-phenyl)-acryloyl]-benzamide] | 9 µM | 6 µM | –
24 | Nc1ccccc1NC(=O)c1ccc(C(=O)/C=C/c2ccc(Cl)c(Cl)c2)cc1 [Ia, N-(2-Amino-phenyl)-4-[3-(3,4-dichloro-phenyl)-acryloyl]-benzamide] | 1 µM | 5 µM | –
25 | COc1cc(NC(=O)/C=C/c2ccc(C(=O)Nc3ccccc3N)cc2)cc(OC)c1OC [Va, N-(2-Amino-phenyl)-4-[2-(3,4,5-trimethoxy-phenylcarbamoyl)-vinyl]-benzamide] | 3 µM | 5 µM | –
26 | N#CCCN(Cc1cccnc1)C(=O)/C=C/c1ccc(C(=O)Nc2ccccc2N)cc1 [Vn, N-(2-Amino-phenyl)-4-{2-[(2-cyano-ethyl)-pyridin-3-ylmethyl-carbamoyl]-vinyl}-benzamide] | 3 µM | 7 µM | –
27 | Nc1ccccc1NC(=O)c1ccc(/C=C/C(=O)N2CCN(c3ccccn3)CC2)cc1 [Vm, N-(2-Amino-phenyl)-4-[3-oxo-3-(4-pyridin-2-yl-piperazin-1-yl)-propenyl]-benzamide] | 6 µM | 11 µM | –
28 | CC(C)(C)OC(=O)N(C/C=C/c1ccc(C(=O)Nc2ccccc2N)cc1)Cc1cccnc1 [XXIIh, t-Butyl {3-[4-(2-amino-phenylcarbamoyl)-phenyl]-ally}-pyridin-3-ylmethyl-carbamate] | 3 µM | 3 µM | –
29 | Nc1ccccc1NC(=O)c1ccc(/C=C/C(=O)N2CCOCC2)cc1 [Ve, N-(2-Amino-phenyl)-4-(3-morpholin-4-yl-3-oxo-propenyl)-benzamide] | 6 µM | 20 µM | –
30 | COc1cc(OC)c(/C=C/C(=O)c2ccc(C(=O)Nc3ccccc3N)cc2)c(OC)c1 [If, N-(2-Amino-phenyl)-4-[3-(2,4,6-trimethoxy-phenyl)-acryloyl]-benzamide] | 5 µM | 4 µM | –
31 | COc1ccc(C2CCN(C(=O)/C=C/c3ccc(C(=O)Nc4ccccc4N)cc3)CC2)cc1OC [Vk, N-(2-Amino-phenyl)-4-{3-[4-(3,4-dimethoxy-phenyl)-piperidin-1-yl]-3-oxo-propenyl}-benzamide] | 2 µM | 13 µM | –
